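Results reflect a 48-hour exposure of cells in 96-well plates to compound at five concentrations. TGI marks complete inhibition of growth.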
Legend:
Assay in all cases: inhibition of tumour cell growth, NCI panel, 48 h
OVCAR-5 ovarian = tested on: OVCAR-5 ovarian
SK-MEL-28 melanoma = tested on: SK-MEL-28 melanoma
COLO 205 colon = tested on: COLO 205 colon
UACC-257 melanoma = tested on: UACC-257 melanoma
BT-549 breast = tested on: BT-549 breast
MOLT-4 leukemia = tested on: MOLT-4 leukemia
EKVX NSCLC = tested on: EKVX NSCLC
MDA-MB-435 = tested on: MDA-MB-435
HT29 colon = tested on: HT29 colon
SR leukemia = tested on: SR leukemia
LOX IMVI melanoma = tested on: LOX IMVI melanoma
SK-MEL-5 melanoma = tested on: SK-MEL-5 melanoma
RXF 393 renal = tested on: RXF 393 renal
UO-31 renal = tested on: UO-31 renal
K-562 leukemia = tested on: K-562 leukemia
TK-10 renal = tested on: TK-10 renal
OVCAR-4 ovarian = tested on: OVCAR-4 ovarian
T-47D breast = tested on: T-47D breast
SN12C renal = tested on: SN12C renal
KM12 colon = tested on: KM12 colon
SK-MEL-2 melanoma = tested on: SK-MEL-2 melanoma
ACHN renal = tested on: ACHN renal
HS 578T breast = tested on: HS 578T breast
OVCAR-3 ovarian = tested on: OVCAR-3 ovarian
PC-3 prostate = tested on: PC-3 prostate
NCI-H522 lung = tested on: NCI-H522 lung
HCC-2998 colon = tested on: HCC-2998 colon
786-0 renal = tested on: 786-0 renal
CCRF-CEM leukemia = tested on: CCRF-CEM leukemia
NCI-H460 lung = tested on: NCI-H460 lung
U251 CNS = tested on: U251 CNS
HOP-62 NSCLC = tested on: HOP-62 NSCLC
MDA-N = tested on: MDA-N
HCT-116 colon = tested on: HCT-116 colon
SF-539 CNS = tested on: SF-539 CNS
SF-268 CNS = tested on: SF-268 CNS
OVCAR-8 ovarian = tested on: OVCAR-8 ovarian
IGROV1 ovarian = tested on: IGROV1 ovarian
SNB-19 CNS = tested on: SNB-19 CNS
RPMI-8226 leukemia = tested on: RPMI-8226 leukemia
HOP-92 NSCLC = tested on: HOP-92 NSCLC
SK-OV-3 ovarian = tested on: SK-OV-3 ovarian
A498 renal = tested on: A498 renal
M14 melanoma = tested on: M14 melanoma
SNB-75 CNS = tested on: SNB-75 CNS
MDA-MB-231 breast = tested on: MDA-MB-231 breast
A549 NSCLC = tested on: A549 NSCLC
NCI-H226 lung = tested on: NCI-H226 lung
SW-620 colon = tested on: SW-620 colon
HL-60(TB) leukemia = tested on: HL-60(TB) leukemia
CAKI-1 renal = tested on: CAKI-1 renal
HCT-15 colon = tested on: HCT-15 colon
MALME-3M melanoma = tested on: MALME-3M melanoma
NCI-H23 lung = tested on: NCI-H23 lung
SF-295 CNS = tested on: SF-295 CNS
NCI/ADR-RES ovarian = tested on: NCI/ADR-RES ovarian
UACC-62 melanoma = tested on: UACC-62 melanoma
MCF7 breast = tested on: MCF7 breast
DU-145 prostate = tested on: DU-145 prostate

Measured: TGI

[N-]=[N+]=Nc1c(-c2ccccc2)c(Cl)nc2ccccc12
77.1 µM: BT-549 breast
> 100 µM: OVCAR-5 ovarian | SK-MEL-28 melanoma | MOLT-4 leukemia | EKVX NSCLC | MDA-MB-435 | SR leukemia | RXF 393 renal | UO-31 renal | K-562 leukemia | TK-10 renal | OVCAR-4 ovarian | T-47D breast | SN12C renal | SK-MEL-2 melanoma | ACHN renal | HS 578T breast | OVCAR-3 ovarian | PC-3 prostate | NCI-H522 lung | HCC-2998 colon | 786-0 renal | CCRF-CEM leukemia | NCI-H460 lung | U251 CNS | HOP-62 NSCLC | MDA-N | HCT-116 colon | SF-539 CNS | SF-268 CNS | OVCAR-8 ovarian | IGROV1 ovarian | SNB-19 CNS | RPMI-8226 leukemia | HOP-92 NSCLC | SK-OV-3 ovarian | M14 melanoma | SNB-75 CNS | MDA-MB-231 breast | A549 NSCLC | NCI-H226 lung | SW-620 colon | HL-60(TB) leukemia | CAKI-1 renal | HCT-15 colon | MALME-3M melanoma | NCI-H23 lung | SF-295 CNS | NCI/ADR-RES ovarian
59.8 µM: UACC-257 melanoma
44.7 µM: COLO 205 colon
72.2 µM: A498 renal
34.5 µM: SK-MEL-5 melanoma
43.6 µM: LOX IMVI melanoma
45.2 µM: KM12 colon
52.5 µM: HT29 colon

Cc1ccc(/C=N/Nc2cnccn2)s1
> 100 µM: OVCAR-5 ovarian | SK-MEL-28 melanoma | UACC-62 melanoma | COLO 205 colon | UACC-257 melanoma | BT-549 breast | MOLT-4 leukemia | EKVX NSCLC | MDA-MB-435 | HT29 colon | LOX IMVI melanoma | SK-MEL-5 melanoma | RXF 393 renal | UO-31 renal | K-562 leukemia | TK-10 renal | OVCAR-4 ovarian | T-47D breast | SN12C renal | KM12 colon | SK-MEL-2 melanoma | MCF7 breast | ACHN renal | HS 578T breast | OVCAR-3 ovarian | PC-3 prostate | NCI-H522 lung | HCC-2998 colon | 786-0 renal | CCRF-CEM leukemia | U251 CNS | HOP-62 NSCLC | MDA-N | HCT-116 colon | SF-539 CNS | SF-268 CNS | OVCAR-8 ovarian | IGROV1 ovarian | SNB-19 CNS | RPMI-8226 leukemia | HOP-92 NSCLC | SK-OV-3 ovarian | M14 melanoma | SNB-75 CNS | MDA-MB-231 breast | A549 NSCLC | NCI-H226 lung | SW-620 colon | HL-60(TB) leukemia | CAKI-1 renal | HCT-15 colon | MALME-3M melanoma | NCI-H23 lung | SF-295 CNS | NCI/ADR-RES ovarian

COc1ccc(NS(=O)CCCc2ccccc2)cc1 (configuration not stated)
71.9 µM: T-47D breast
> 100 µM: OVCAR-5 ovarian | SK-MEL-28 melanoma | UACC-62 melanoma | COLO 205 colon | UACC-257 melanoma | BT-549 breast | MOLT-4 leukemia | EKVX NSCLC | MDA-MB-435 | HT29 colon | SR leukemia | LOX IMVI melanoma | SK-MEL-5 melanoma | UO-31 renal | K-562 leukemia | TK-10 renal | OVCAR-4 ovarian | SN12C renal | KM12 colon | SK-MEL-2 melanoma | MCF7 breast | ACHN renal | HS 578T breast | OVCAR-3 ovarian | NCI-H522 lung | 786-0 renal | CCRF-CEM leukemia | NCI-H460 lung | U251 CNS | HOP-62 NSCLC | MDA-N | HCT-116 colon | SF-539 CNS | SF-268 CNS | OVCAR-8 ovarian | IGROV1 ovarian | SNB-19 CNS | RPMI-8226 leukemia | DU-145 prostate | MDA-MB-231 breast | A549 NSCLC | NCI-H226 lung | SW-620 colon | HL-60(TB) leukemia | HCT-15 colon | MALME-3M melanoma | NCI-H23 lung | SF-295 CNS | NCI/ADR-RES ovarian

CCOC(=O)/C(Cl)=C(\C)Nc1nc2c(ccc3ccccc32)s1
39.2 µM: HCC-2998 colon
77.1 µM: SR leukemia
60.1 µM: SK-MEL-2 melanoma
70.9 µM: NCI-H522 lung
46.6 µM: DU-145 prostate
> 100 µM: OVCAR-5 ovarian | SK-MEL-28 melanoma | UACC-62 melanoma | COLO 205 colon | UACC-257 melanoma | BT-549 breast | MOLT-4 leukemia | EKVX NSCLC | HT29 colon | SK-MEL-5 melanoma | UO-31 renal | K-562 leukemia | TK-10 renal | OVCAR-4 ovarian | SN12C renal | KM12 colon | MCF7 breast | ACHN renal | HS 578T breast | OVCAR-3 ovarian | PC-3 prostate | CCRF-CEM leukemia | U251 CNS | HOP-62 NSCLC | MDA-N | HCT-116 colon | SF-268 CNS | OVCAR-8 ovarian | IGROV1 ovarian | SNB-19 CNS | SK-OV-3 ovarian | A498 renal | M14 melanoma | SNB-75 CNS | MDA-MB-231 breast | NCI-H226 lung | SW-620 colon | HL-60(TB) leukemia | CAKI-1 renal | HCT-15 colon | MALME-3M melanoma | NCI-H23 lung | SF-295 CNS | NCI/ADR-RES ovarian
69.3 µM: NCI-H460 lung
43.6 µM: T-47D breast

— PubChem BioAssay (NCI)
